Results on eight molecules are retold here after PubChem BioAssay AID1259407 (Chemical Carcinogenesis Research Information System (CCRIS), 2018).

The subject of this data set is CCRIS mutagenicity, Ames/micronucleus/aberration tests. The experiment in a line: CCRIS mutagenicity studies.
Where [1] appears, read: Test System: AMES SALMONELLA TYPHIMURIUM, Strain/Indicator: TA98, Metabolic Activation: NONE, Method: PREINCUBATION
Setting [2] is: Test System: AMES SALMONELLA TYPHIMURIUM, Strain/Indicator: TA100, Metabolic Activation: NONE, Method: PREINCUBATION
Where [3] appears, read: Test System: AMES SALMONELLA TYPHIMURIUM, Strain/Indicator: TA100, Metabolic Activation: NONE, Method: STANDARD PLATE.
Where [4] appears, read: Test System: AMES SALMONELLA TYPHIMURIUM, Strain/Indicator: TA98, Metabolic Activation: RAT, LIVER, S-9, AROCLOR 1254, Method: PREINCUBATION
Where [5] appears, read: Test System: AMES SALMONELLA TYPHIMURIUM, Strain/Indicator: TA100, Metabolic Activation: RAT, LIVER, S-9, AROCLOR 1254, Method: PREINCUBATION

SMILES strings stand for the structures. Active and inactive are the calls of the source. The rule behind the calls is not given here.

As to `Cc1ccc(N)c(S(=O)(=O)O)c1`, the mutagenic call is “inactive; negative” (Test System: AMES SALMONELLA TYPHIMURIUM, Strain/Indicator: TA98, Metabolic Activation: HAMSTER, LIVER, S-9, AROCLOR 1254, Method: STANDARD PLATE); “inactive; negative” under setting [1]; “inactive; negative” (Test System: AMES SALMONELLA TYPHIMURIUM, Strain/Indicator: TA98, Metabolic Activation: NONE, Method: STANDARD PLATE); “inactive; negative” (Test System: AMES SALMONELLA TYPHIMURIUM, Strain/Indicator: TA98, Metabolic Activation: RAT LIVER S-9, PHENOBARBITAL AND BETA-NAPHTHOFLAVONE, Method: PREINCUBATION); “inactive; negative” (Test System: AMES SALMONELLA TYPHIMURIUM, Strain/Indicator: TA98, Metabolic Activation: RAT, LIVER, S-9, AROCLOR 1254, Method: STANDARD PLATE); “inactive; negative” (Test System: AMES SALMONELLA TYPHIMURIUM, Strain/Indicator: TA100, Metabolic Activation: HAMSTER, LIVER, S-9, AROCLOR 1254, Method: STANDARD PLATE). Besides, the mutagenic call runs as follows: under setting [2], “inactive; negative”; under setting [3], “inactive; negative”; (Test System: AMES SALMONELLA TYPHIMURIUM, Strain/Indicator: TA100, Metabolic Activation: RAT LIVER S-9, PHENOBARBITAL AND BETA-NAPHTHOFLAVONE, Method: PREINCUBATION) “inactive; negative”; (Test System: AMES SALMONELLA TYPHIMURIUM, Strain/Indicator: TA100, Metabolic Activation: RAT, LIVER, S-9, AROCLOR 1254, Method: STANDARD PLATE) “inactive; negative”; (Test System: AMES SALMONELLA TYPHIMURIUM, Strain/Indicator: TA102, Metabolic Activation: NONE, Method: PREINCUBATION) “inactive; negative”; (Test System: AMES SALMONELLA TYPHIMURIUM, Strain/Indicator: TA102, Metabolic Activation: RAT LIVER S-9, PHENOBARBITAL AND BETA-NAPHTHOFLAVONE, Method: PREINCUBATION) “inactive; negative”. In addition, the mutagenic call is, setting by setting: (Test System: AMES SALMONELLA TYPHIMURIUM, Strain/Indicator: TA104, Metabolic Activation: NONE, Method: PREINCUBATION) “inactive; negative”; (Test System: AMES SALMONELLA TYPHIMURIUM, Strain/Indicator: TA104, Metabolic Activation: RAT LIVER S-9, PHENOBARBITAL AND BETA-NAPHTHOFLAVONE, Method: PREINCUBATION) “inactive; negative”; (Test System: AMES SALMONELLA TYPHIMURIUM, Strain/Indicator: TA1535, Metabolic Activation: HAMSTER, LIVER, S-9, AROCLOR 1254, Method: STANDARD PLATE) “inactive; negative”; (Test System: AMES SALMONELLA TYPHIMURIUM, Strain/Indicator: TA1535, Metabolic Activation: NONE, Method: PREINCUBATION) “inactive; negative”; (Test System: AMES SALMONELLA TYPHIMURIUM, Strain/Indicator: TA1535, Metabolic Activation: NONE, Method: STANDARD PLATE) “inactive; negative”; (Test System: AMES SALMONELLA TYPHIMURIUM, Strain/Indicator: TA1535, Metabolic Activation: RAT LIVER S-9, PHENOBARBITAL AND BETA-NAPHTHOFLAVONE, Method: PREINCUBATION) “inactive; negative”. Moreover, the mutagenic call is, setting by setting: (Test System: AMES SALMONELLA TYPHIMURIUM, Strain/Indicator: TA1535, Metabolic Activation: RAT, LIVER, S-9, AROCLOR 1254, Method: STANDARD PLATE) “inactive; negative”; (Test System: AMES SALMONELLA TYPHIMURIUM, Strain/Indicator: TA1537, Metabolic Activation: HAMSTER, LIVER, S-9, AROCLOR 1254, Method: STANDARD PLATE) “inactive; negative”; (Test System: AMES SALMONELLA TYPHIMURIUM, Strain/Indicator: TA1537, Metabolic Activation: NONE, Method: PREINCUBATION) “inactive; negative”; (Test System: AMES SALMONELLA TYPHIMURIUM, Strain/Indicator: TA1537, Metabolic Activation: NONE, Method: STANDARD PLATE) “inactive; negative”; (Test System: AMES SALMONELLA TYPHIMURIUM, Strain/Indicator: TA1537, Metabolic Activation: RAT LIVER S-9, PHENOBARBITAL AND BETA-NAPHTHOFLAVONE, Method: PREINCUBATION) “inactive; negative”; (Test System: AMES SALMONELLA TYPHIMURIUM, Strain/Indicator: TA1537, Metabolic Activation: RAT, LIVER, S-9, AROCLOR 1254, Method: STANDARD PLATE) “inactive; negative”. Further, the mutagenic call reads like this: (Test System: AMES SALMONELLA TYPHIMURIUM, Strain/Indicator: TA1538, Metabolic Activation: HAMSTER, LIVER, S-9, AROCLOR 1254, Method: STANDARD PLATE) “inactive; negative”; (Test System: AMES SALMONELLA TYPHIMURIUM, Strain/Indicator: TA1538, Metabolic Activation: NONE, Method: STANDARD PLATE) “inactive; negative”; (Test System: AMES SALMONELLA TYPHIMURIUM, Strain/Indicator: TA1538, Metabolic Activation: RAT, LIVER, S-9, AROCLOR 1254, Method: STANDARD PLATE) “inactive; negative”; (Test System: E.COLI, Strain/Indicator: WP2UVRA/PKM101, Metabolic Activation: NONE, Method: PREINCUBATION) “inactive; negative”; (Test System: E.COLI, Strain/Indicator: WP2UVRA/PKM101, Metabolic Activation: RAT LIVER S-9, PHENOBARBITAL AND BETA-NAPHTHOFLAVONE, Method: PREINCUBATION) “inactive; negative”; (Test System: E.COLI, Strain/Indicator: WP2UVRA, Metabolic Activation: NONE, Method: PREINCUBATION) “inactive; negative”. Besides, the mutagenic call runs as follows: (Test System: E.COLI, Strain/Indicator: WP2UVRA, Metabolic Activation: RAT LIVER S-9, PHENOBARBITAL AND BETA-NAPHTHOFLAVONE, Method: PREINCUBATION) “inactive; negative”; (Test System: MOUSE LYMPHOMA, Strain/Indicator: L5178Y (TK+/TK-), Metabolic Activation: NONE, Method: SUSPENSION/PLATE) “inactive; negative. reevaluation of results: negative”; (Test System: MOUSE LYMPHOMA, Strain/Indicator: L5178Y (TK+/TK-), Metabolic Activation: RAT, LIVER, S-9, AROCLOR 1254, Method: SUSPENSION/PLATE) “inactive; negative. reevaluation of results: equivocal”; (Test System: UDS RODENT HEPATOCYTES, Strain/Indicator: THY INCORP (NON-S-PHASE), Metabolic Activation: NONE, Method: AUTORADIOGRAPHY) “inactive; negative”.

On to `Nc1ccc2c3c(cccc13)-c1ccccc1-2`, for which the mutagenic call reads like this: (Test System: AMES SALMONELLA TYPHIMURIUM, Strain/Indicator: TA98, Metabolic Activation: RAT, LIVER, S-9, AROCLOR 1254 (2 OR 4%), Method: STANDARD PLATE) “active; positive”; (Test System: AMES SALMONELLA TYPHIMURIUM, Strain/Indicator: TA100, Metabolic Activation: RAT, LIVER, S-9, AROCLOR 1254 (4%), Method: STANDARD PLATE) “active; positive”; (Test System: AMES SALMONELLA TYPHIMURIUM, Strain/Indicator: TA1535, Metabolic Activation: RAT, LIVER, S-9, AROCLOR 1254 (4%), Method: STANDARD PLATE) “inactive; negative”; (Test System: AMES SALMONELLA TYPHIMURIUM, Strain/Indicator: TA1537, Metabolic Activation: RAT, LIVER, S-9, AROCLOR 1254 (4%), Method: STANDARD PLATE) “active; positive”.

With `O=C1C=C(c2nnc(NC(=O)c3ccccc3)s2)C(=O)C=C1Nc1ccc([N+](=O)[O-])cc1`, the mutagenic call under setting [3] was “active; positive”.

As for `Brc1cc(Br)c(-c2cc(Br)c(Br)cc2Br)cc1Br`, the mutagenic call (Test System: CHINESE HAMSTER V-79, Strain/Indicator: V-79 (HGPRT)/6-THIOGUANINE, Metabolic Activation: NONE) is “inactive; negative”.

`Cn1c(N)nc2ccc3ncccc3c21`: the mutagenic call under setting [4] was “active; positive” and the mutagenic call under setting [5] was “active; positive”.

`Cc1nn(C)c(Oc2ccccc2)c1/C=N/OCc1ccc(C(=O)OC(C)(C)C)cc1`: the mutagenic call was “inactive; negative” (End Point: In vitro chromosomal aberrations, Test System: Human lymphocytes/Male, Metabolic Activation: None); “inactive; negative” (End Point: In vitro chromosomal aberrations, Test System: Human lymphocytes/Male, Metabolic Activation: Rat, Liver, S-9); “inactive; negative” (End Point: In vivol micronucleus, Species: Mouse, Strain/Sex: CD-1, Route: Oral).

Regarding `c1ccc2cnccc2c1`, the mutagenic call by setting is: under setting [1], “inactive; negative”; (Test System: AMES SALMONELLA TYPHIMURIUM, Strain/Indicator: TA98, Metabolic Activation: RAT, LIVER, S-9, Method: PREINCUBATION) “inactive; negative”; under setting [2], “inactive; negative”; (Test System: AMES SALMONELLA TYPHIMURIUM, Strain/Indicator: TA100, Metabolic Activation: RAT, LIVER, S-9, Method: PREINCUBATION) “inactive; negative”.

As for `[Cl][Pt-2]([Cl])([Cl])[Cl]`, the mutagenic call is, setting by setting: under setting [1], “active; positive”; under setting [4], “active; positive”; under setting [2], “active; positive”; under setting [5], “active; positive”.
